Experimental data as given in US12378249B2, “Isoquinoline compounds and uses thereof” (Genentech, Inc., priority 2018, dated 2025).

Each compound was assayed against HPK1 (Homo sapiens (Human), UniProt Q92918, S171E/T165E) (assay: HPK1-FL HTRF Enzymatic Assay (HTRF)). Conditions: HPK full length T165E S171E 0.125 nM, ATP 1 mM, Biotin-SLP76 100 nM, read-out: HPK1 Ki (nM), H = HTRF.
Format: biochemical
Procedure, shortened: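 Full-length HPK1 double mutant, preincubated 30 min with compound, then phosphorylates Biotin-SLP-76 at 1 mM ATP for 60 min in HEPES pH 7.5/MgCl2/TCEP/Brij-35 buffer. Phospho-product detected by TR-FRET (Eu-anti-pSLP76, SA-XL665) after 60 min; 665/620 ratio gives % activity, from which Ki is determined.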

HPK1, sequence (Q92918 whole entry T165E/S171E): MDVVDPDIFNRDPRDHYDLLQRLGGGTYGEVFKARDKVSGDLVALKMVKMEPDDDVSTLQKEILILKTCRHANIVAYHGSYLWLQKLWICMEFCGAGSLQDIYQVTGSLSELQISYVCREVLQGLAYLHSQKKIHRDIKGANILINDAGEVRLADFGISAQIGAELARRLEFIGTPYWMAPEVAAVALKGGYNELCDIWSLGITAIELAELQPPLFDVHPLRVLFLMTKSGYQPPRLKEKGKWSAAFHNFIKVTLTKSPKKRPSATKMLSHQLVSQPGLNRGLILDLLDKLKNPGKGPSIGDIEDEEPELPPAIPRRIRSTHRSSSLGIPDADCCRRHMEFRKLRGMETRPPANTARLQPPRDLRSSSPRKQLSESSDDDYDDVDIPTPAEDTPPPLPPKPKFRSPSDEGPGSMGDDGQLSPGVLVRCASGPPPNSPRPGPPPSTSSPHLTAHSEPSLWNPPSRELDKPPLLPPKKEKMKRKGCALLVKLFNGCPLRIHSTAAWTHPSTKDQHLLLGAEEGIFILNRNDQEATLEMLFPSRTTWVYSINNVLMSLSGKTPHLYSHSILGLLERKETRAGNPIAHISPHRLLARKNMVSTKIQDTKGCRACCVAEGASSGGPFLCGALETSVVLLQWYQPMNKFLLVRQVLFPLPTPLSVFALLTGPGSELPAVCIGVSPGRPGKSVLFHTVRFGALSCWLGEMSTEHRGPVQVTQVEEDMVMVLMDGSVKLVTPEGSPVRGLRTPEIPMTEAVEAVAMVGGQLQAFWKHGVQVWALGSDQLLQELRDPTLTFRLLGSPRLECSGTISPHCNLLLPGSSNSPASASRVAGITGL

Ki | SMILES
23.7 nM | Cc1cc(S(C)(=N)=O)ncc1-c1cc2cc(Nc3cc4n(n3)CC(=O)N(C)CC4)ncc2cc1F (stereo not drawn) [Compound 178, 2-((7-fluoro-6-(4-methyl-6-(S-methylsulfonimidoyl)pyridin-3-yl)isoquinolin-3-yl)amino)-6-methyl-5,6-dihydro-4H-pyrazolo[1,5-d][1,4]diazepin-7(8H)-one]
0.5 nM | Cc1c(NC2CNC2)cncc1-c1cc2cc(Nc3cc4n(n3)Cc3nccn3CC4)ncc2cc1F [Compound 179, N-(6-(5-(azetidin-3-ylamino)-4-methylpyridin-3-yl)-7-fluoroisoquinolin-3-yl)-5,6-dihydro-11H-imidazo[1,2-a]pyrazolo[1,5-d][1,4]diazepin-8-amine]
0.026 nM | CNc1cncc(-c2cc3cc(Nc4cc5n(n4)CC(=O)NCC5)ncc3cc2F)c1C [Compound 181, 2-((7-fluoro-6-(4-methyl-5-(methylamino)pyridin-3-yl)isoquinolin-3-yl)amino)-5,6-dihydro-4H-pyrazolo[1,5-d][1,4]diazepin-7(8H)-one]
0.013 nM | Cc1c(-c2cc3cc(Nc4cc5n(n4)Cc4nccn4CC5)ncc3cc2F)cnc2c1NCCCO2 [Compound 183, N-(7-fluoro-6-(9-methyl-1,2,3,4-tetrahydropyrido[2,3-b][1,4]oxazepin-8-yl)isoquinolin-3-yl)-5,6-dihydro-11H-imidazo[1,2-a]pyrazolo[1,5-d][1,4]diazepin-8-amine]
0.12 nM | Cc1c(-c2cc3cc(Nc4cc5n(n4)CC(=O)N(C)CC5)ncc3cc2F)cnc2cn[nH]c12 [Compound 186, 2-((7-fluoro-6-(7-methyl-1H-pyrazolo[4,3-b]pyridin-6-yl)isoquinolin-3-yl)amino)-6-methyl-5,6-dihydro-4H-pyrazolo[1,5-d][1,4]diazepin-7(8H)-one]
0.25 nM | Cc1c(-c2cc3cc(Nc4cc5n(n4)CC(=O)N(C)CC5)ncc3cc2F)cnc2c1NCN(C)C2=O [Compound 187, 7-(7-fluoro-3-((6-methyl-7-oxo-5,6,7,8-tetrahydro-4H-pyrazolo[1,5-d][1,4]diazepin-2-yl)amino)isoquinolin-6-yl)-3,8-dimethyl-2,3-dihydropyrido[3,2-d]pyrimidin-4(1H)-one]
0.24 nM | Cc1c(-c2cc3cc(Nc4cc5n(n4)CC(=O)N(C)CC5)ncc3cc2F)cnc2c1CCCO2 [Compound 190, 2-((7-fluoro-6-(5-methyl-3,4-dihydro-2H-pyrano[2,3-b]pyridin-6-yl)isoquinolin-3-yl)amino)-6-methyl-5,6-dihydro-4H-pyrazolo[1,5-d][1,4]diazepin-7(8H)-one]
0.018 nM | Cc1c(-c2cc3cc(Nc4cc5n(n4)CC(=O)NCC5)ncc3cc2F)cnc2c1NCCC2 [Compound 192, 2-((7-fluoro-6-(4-methyl-5,6,7,8-tetrahydro-1,5-naphthyridin-3-yl)isoquinolin-3-yl)amino)-5,6-dihydro-4H-pyrazolo[1,5-d][1,4]diazepin-7(8H)-one]
23 nM | Cc1c(-c2cc3cc(Nc4cc5n(n4)CC(=O)N(C)CC5)ncc3cc2F)cnc2c1NS(=O)(=O)CO2 [Compound 193, 2-((7-fluoro-6-(8-methyl-2,2-dioxido-1H,3H-pyrido[3,2-e][1,3,4]oxathiazin-7-yl)isoquinolin-3-yl)amino)-6-methyl-5,6-dihydro-4H-pyrazolo[1,5-d][1,4]diazepin-7(8H)-one]
0.83 nM | Cc1c(-c2cc3cc(Nc4cc5n(n4)CC(=O)N(C)CC5)ncc3cc2F)cnnc1N [Compound 194, 2-((6-(6-amino-5-methylpyridazin-4-yl)-7-fluoroisoquinolin-3-yl)amino)-6-methyl-5,6-dihydro-4H-pyrazolo[1,5-d][1,4]diazepin-7(8H)-one]
0.26 nM | Cc1c[nH]c2c(C)c(-c3cc4cc(Nc5cc6n(n5)CC(=O)N(C)CC6)ncc4cc3F)cnc12 [Compound 195, 2-((6-(3,7-dimethyl-1H-pyrrolo[3,2-b]pyridin-6-yl)-7-fluoroisoquinolin-3-yl)amino)-6-methyl-5,6-dihydro-4H-pyrazolo[1,5-d] [1,4]diazepin-7(8H)-one]
0.1 nM | Cc1c(-c2cc3cc(Nc4cc5n(n4)CC(=O)NCC5)ncc3cc2F)cnc2c1NCCC2=O [Compound 196, 2-((7-fluoro-6-(4-methyl-8-oxo-5,6,7,8-tetrahydro-1,5-naphthyridin-3-yl)isoquinolin-3-yl)amino)-5,6-dihydro-4H-pyrazolo[1,5-d][1,4]diazepin-7(8H)-one]
4.1 nM | Cc1c(NS(=O)(=O)C2CC2)cncc1-c1cc2cc(Nc3cc4n(n3)CC(=O)N(C)CC4)ncc2cc1F [Compound 197, N-(5-(7-fluoro-3-((6-methyl-7-oxo-5,6,7,8-tetrahydro-4H-pyrazolo[1,5-d][1,4]diazepin-2-yl)amino)isoquinolin-6-yl)-4-methylpyridin-3-yl)cyclopropanesulfonamide]
4.2 nM | Cc1cc(N2CCNCC2)ncc1-c1cc2cc(Nc3cc4n(n3)CC(=O)N(C)CC4)ncc2cc1F [Compound 198, 2-((7-fluoro-6-(4-methyl-6-(piperazin-1-yl)pyridin-3-yl)isoquinolin-3-yl)amino)-6-methyl-5,6-dihydro-4H-pyrazolo[1,5-d][1,4]diazepin-7(8H)-one]
5 nM | CNC1CCN(c2cc(C)c(-c3cc4cc(Nc5cc6n(n5)CC(=O)N(C)CC6)ncc4cc3F)cn2)CC1 [Compound 199, 2-((7-fluoro-6-(4-methyl-6-(4-(methylamino)piperidin-1-yl)pyridin-3-yl)isoquinolin-3-yl)amino)-6-methyl-5,6-dihydro-4H-pyrazolo[1,5-d][1,4]diazepin-7(8H)-one]

Second part, the compound before the results:

SMILES | Ki
Cc1c(-c2cc3cc(Nc4cc5n(n4)CC(=O)N(C)CC5)ncc3cc2F)cnc2c1N(C)CCO2 [Compound 162, 2-((6-(1,8-dimethyl-2,3-dihydro-1H-pyrido[2,3-b][1,4]oxazin-7-yl)-7-fluoroisoquinolin-3-yl)amino)-6-methyl-5,6-dihydro-4H-pyrazolo[1,5-d][1,4]diazepin-7(8H)-one] | 0.43 nM
Cc1c(N)cncc1-c1cc2cc(Nc3cc4n(n3)Cc3ncc(C)n3CC4)ncc2cc1F [Compound 163, N-(6-(5-amino-4-methylpyridin-3-yl)-7-fluoroisoquinolin-3-yl)-3-methyl-5,6-dihydro-11H-imidazo[1,2-a]pyrazolo[1,5-d][1,4]diazepin-8-amine] | 0.013 nM
Cc1c(N)cncc1-c1cc2cc(Nc3cc4n(n3)CC(=O)N(CCN3CC(F)C3)CC4)ncc2cc1F [Compound 164, 2-((6-(5-amino-4-methylpyridin-3-yl)-7-fluoroisoquinolin-3-yl)amino)-6-(2-(3-fluoroazetidin-1-yl)ethyl)-5,6-dihydro-4H-pyrazolo[1,5-d][1,4]diazepin-7(8H)-one] | 0.013 nM
Cc1c(N)cncc1-c1cc2cc(Nc3cc4n(n3)CC3=NOC(C)(C)N3CC4)ncc2cc1F [Compound 166, N-(6-(5-amino-4-methylpyridin-3-yl)-7-fluoroisoquinolin-3-yl)-3,3-dimethyl-5,6-dihydro-3H,11H-[1,2,4]oxadiazolo[4,3-a]pyrazolo[1,5-d][1,4]diazepin-8-amine] | 0.12 nM
Cc1c(N)cncc1-c1cc(F)c2cnc(Nc3cc4n(n3)Cc3nccn3CC4)cc2c1 [Compound 168, N-(6-(5-amino-4-methylpyridin-3-yl)-8-fluoroisoquinolin-3-yl)-5,6-dihydro-1I1H-imidazo[1,2-a]pyrazolo[1,5-d][1,4]diazepin-8-amine] | 0.028 nM
Cc1c(N)cncc1-c1cc2cc(Nc3cc4n(n3)CC(=O)N(C(C)C)CC4)ncc2cc1C#N [Compound 169, 6-(5-amino-4-methylpyridin-3-yl)-3-((6-isopropyl-7-oxo-5,6,7,8-tetrahydro-4H-pyrazolo[1,5-d][1,4]diazepin-2-yl)amino)isoquinoline-7-carbonitrile] | 0.39 nM
CC(=O)Nc1cncc(-c2cc3cc(Nc4cc5n(n4)CC(=O)N(C)CC5)ncc3cc2F)c1C [Compound 171, N-(5-(7-fluoro-3-((6-methyl-7-oxo-5,6,7,8-tetrahydro-4H-pyrazolo[1,5-d][1,4]diazepin-2-yl)amino)isoquinolin-6-yl)-4-methylpyridin-3-yl)acetamide] | 1.78 nM
Cc1c(NS(C)(=O)=O)cncc1-c1cc2cc(Nc3cc4n(n3)CC(=O)N(C)CC4)ncc2cc1F [Compound 172, N-(5-(7-fluoro-3-((6-methyl-7-oxo-5,6,7,8-tetrahydro-4H-pyrazolo[1,5-d][1,4]diazepin-2-yl)amino)isoquinolin-6-yl)-4-methylpyridin-3-yl)methanesulfonamide] | 0.46 nM
Cc1c(-c2ccc3cnc(Nc4cc5n(n4)CC(=O)N(C)CC5)cc3c2F)cnc2c1NCCO2 [Compound 174, 2-((5-fluoro-6-(8-methyl-2,3-dihydro-1H-pyrido[2,3-b][1,4]oxazin-7-yl)isoquinolin-3-yl)amino)-6-methyl-5,6-dihydro-4H-pyrazolo[1,5-d][1,4]diazepin-7(8H)-one] | 0.026 nM
Cc1c(-c2cc3cc(Nc4cc5n(n4)CC(=O)N(C)CC5)ncc3cc2F)cnc2nc[nH]c12 [Compound 175, 2-((7-fluoro-6-(7-methyl-1H-imidazo[4,5-b]pyridin-6-yl)isoquinolin-3-yl)amino)-6-methyl-5,6-dihydro-4H-pyrazolo[1,5-d][1,4]diazepin-7(8H)-one] | 0.14 nM
Cc1c(-c2cc3cc(Nc4cc5n(n4)CC(=O)NCC5)ncc3cc2F)cnc2c1NCC(F)(F)O2 [Compound 176, 2-((6-(3,3-difluoro-8-methyl-2,3-dihydro-1H-pyrido[2,3-b][1,4]oxazin-7-yl)-7-fluoroisoquinolin-3-yl)amino)-5,6-dihydro-4H-pyrazolo[1,5-d][1,4]diazepin-7(8H)-one] | 0.161 nM
Cc1c(-c2cc3cc(Nc4cc5n(n4)CC(=O)N(C)CC5)ncc3cc2F)cnc2c1NCCS2(=O)=O [Compound 177, 2-((7-fluoro-6-(8-methyl-4,4-dioxido-2,3-dihydro-1H-pyrido[2,3-b][1,4]thiazin-7-yl)isoquinolin-3-yl)amino)-6-methyl-5,6-dihydro-4H-pyrazolo[1,5-d][1,4]diazepin-7(8H)-one] | 0.277 nM
